# Source: publication PMC2949542 (Analytical biochemistry, 2010)
# Read-outs that look alike come from different tables or passages of the source.
# Columns and labels:
# [1] = biological target: T1, carbonic anhydrase II (CAII) (Bos taurus, UniProt P00921); conditions: read-out: KD (μM) ProteOn (2); BioRad ProteOn XPR36; cited from earlier work
# [2] = biological target: T1, carbonic anhydrase II (CAII); experiment: SPR; conditions: for kon: read-out: ka
# [3] = biological target: T1, carbonic anhydrase II (CAII); conditions: read-out: KD (μM) Biacore (8); benchmark study on Biacore platforms; cited from earlier work
# [4] = biological target: T1, carbonic anhydrase II (CAII); experiment: SPR standard injection, ADP over negative-control CAII surface; format: binding; conditions: standard injections, two-fold dilution series from 300 uM, 25 °C
# T1 sequence (P00921 whole entry): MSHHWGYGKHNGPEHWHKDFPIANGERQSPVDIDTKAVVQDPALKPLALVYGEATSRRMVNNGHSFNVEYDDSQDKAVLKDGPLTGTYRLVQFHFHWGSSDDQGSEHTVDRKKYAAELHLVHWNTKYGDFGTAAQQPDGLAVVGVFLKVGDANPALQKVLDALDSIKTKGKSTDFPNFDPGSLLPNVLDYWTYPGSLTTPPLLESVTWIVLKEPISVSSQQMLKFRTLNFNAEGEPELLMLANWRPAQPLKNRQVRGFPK
SMILES,Kd [2],kon [2],binding on negative-control CAII surface [4],Kd [1],Kd [3]
NS(=O)(=O)c1ccccc1 [Benzenesulfonamide],970 nM,135000 M⁻¹ s⁻¹,–,1.1 µM,0.8 µM
CN(C)c1cccc2c(S(N)(=O)=O)cccc12 [Dansylamide],–,–,–,0.8 µM,0.4 µM

# Continued, in another order:
Kd [2],kon [2],binding on negative-control CAII surface [4],SMILES,Kd [1],Kd [3]
5200 nM,7300 M⁻¹ s⁻¹,–,NCc1ccc(S(N)(=O)=O)cc1 [4-(Aminomethyl)benzenesulfonamide],–,3 µM
–,–,no reliable ADP binding was observed,"Nc1ncnc2c1ncn2[C@@H]1O[C@H](COP(=O)(O)OP(=O)(O)O)[C@@H](O)[C@H]1O [ADP, adenosine diphosphate]",–,–
613 nM,179000 M⁻¹ s⁻¹,–,"NS(=O)(=O)c1cccc(S(N)(=O)=O)c1 [1,3-Benzenedisulfonamide]",0.64 µM,0.8 µM
